Results as given in ChEMBL document CHEMBL1157938, “Cytotoxicity and inhibition of DNA topoisomerase I of polyhydroxylated triterpenoids and triterpenoid glycosides” (Bioorg Med Chem Lett, 2010).
pIC50: −log10 of the molar value. Active and inactive are the calls of the source. The rule behind the calls is not given here.

Tests used:
[1] = tested on: PANC-1; test: Cytotoxicity against human PANC1 cells after 48 hrs by WST8 assay; type: functional; details: PANC-1, 48 h
[2] = molecular target: T1, DNA topoisomerase 1 (Homo sapiens, UniProt P11387); test: Inhibition of human DNA topoisomerase 1-mediated relaxation of supercoiled DNA by gel electrophoresis
T1 sequence (P11387 whole entry): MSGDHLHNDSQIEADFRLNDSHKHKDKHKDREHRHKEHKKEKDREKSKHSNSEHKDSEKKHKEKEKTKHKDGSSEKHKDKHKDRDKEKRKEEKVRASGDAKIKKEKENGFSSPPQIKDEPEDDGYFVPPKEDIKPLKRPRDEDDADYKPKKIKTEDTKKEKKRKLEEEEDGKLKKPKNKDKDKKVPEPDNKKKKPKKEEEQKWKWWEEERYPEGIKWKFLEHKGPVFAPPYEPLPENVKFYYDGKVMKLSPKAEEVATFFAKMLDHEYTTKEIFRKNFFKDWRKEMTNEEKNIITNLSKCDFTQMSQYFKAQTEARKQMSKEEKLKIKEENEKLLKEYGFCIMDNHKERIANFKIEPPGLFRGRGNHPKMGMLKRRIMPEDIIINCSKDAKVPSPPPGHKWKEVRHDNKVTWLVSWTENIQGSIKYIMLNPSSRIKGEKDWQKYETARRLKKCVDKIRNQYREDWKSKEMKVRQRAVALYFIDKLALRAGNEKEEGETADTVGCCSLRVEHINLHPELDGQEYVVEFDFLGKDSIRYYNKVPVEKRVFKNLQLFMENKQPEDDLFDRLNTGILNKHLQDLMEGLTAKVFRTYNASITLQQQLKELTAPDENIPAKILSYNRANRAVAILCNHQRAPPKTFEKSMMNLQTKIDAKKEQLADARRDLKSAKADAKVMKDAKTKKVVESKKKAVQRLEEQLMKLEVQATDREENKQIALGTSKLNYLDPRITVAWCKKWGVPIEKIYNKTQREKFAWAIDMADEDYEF

[3] = molecular target: DNA topoisomerase 2-alpha (Homo sapiens, UniProt P11388); test: Inhibition of human DNA topoisomerase 2-mediated relaxation of supercoiled DNA by gel electrophoresis
[4] = tested on: HL-60; test: Cytotoxicity against human HL60 cells after 48 hrs by WST8 assay; type: functional; details: HL-60, 48 h
[5] = Cytotoxicity against human MRC5 cells after 48 hrs by WST8 assay; type: cell-based
[6] = tested on: A549; test: Cytotoxicity against human A549 cells after 48 hrs by WST8 assay; type: functional; details: A549, 48 h
[7] = tested on: PC-3; test: Cytotoxicity against human PC3 cells after 48 hrs by WST8 assay; type: functional; details: PC-3, 48 h
[8] = tested on: HL-60; test: Cytotoxicity against human HL60 cells at 25 uM after 48 hrs by WST8 assay; type: functional, cell-based
[9] = tested on: PC-3; test: Cytotoxicity against human PC3 cells at 25 uM after 48 hrs by WST8 assay; type: functional, cell-based
[10] = tested on: MRC5; test: Cytotoxicity against human MRC5 cells at 25 uM after 48 hrs by WST8 assay; type: cell-based; details: mrc5, 48 h
[11] = tested on: PANC-1; test: Cytotoxicity against human PANC1 cells at 25 uM after 48 hrs by WST8 assay; type: functional, cell-based
[12] = tested on: A549; test: Cytotoxicity against human A549 cells at 25 uM after 48 hrs by WST8 assay; type: functional, cell-based

Chain of DNA topoisomerase 2-alpha (P11388 whole entry): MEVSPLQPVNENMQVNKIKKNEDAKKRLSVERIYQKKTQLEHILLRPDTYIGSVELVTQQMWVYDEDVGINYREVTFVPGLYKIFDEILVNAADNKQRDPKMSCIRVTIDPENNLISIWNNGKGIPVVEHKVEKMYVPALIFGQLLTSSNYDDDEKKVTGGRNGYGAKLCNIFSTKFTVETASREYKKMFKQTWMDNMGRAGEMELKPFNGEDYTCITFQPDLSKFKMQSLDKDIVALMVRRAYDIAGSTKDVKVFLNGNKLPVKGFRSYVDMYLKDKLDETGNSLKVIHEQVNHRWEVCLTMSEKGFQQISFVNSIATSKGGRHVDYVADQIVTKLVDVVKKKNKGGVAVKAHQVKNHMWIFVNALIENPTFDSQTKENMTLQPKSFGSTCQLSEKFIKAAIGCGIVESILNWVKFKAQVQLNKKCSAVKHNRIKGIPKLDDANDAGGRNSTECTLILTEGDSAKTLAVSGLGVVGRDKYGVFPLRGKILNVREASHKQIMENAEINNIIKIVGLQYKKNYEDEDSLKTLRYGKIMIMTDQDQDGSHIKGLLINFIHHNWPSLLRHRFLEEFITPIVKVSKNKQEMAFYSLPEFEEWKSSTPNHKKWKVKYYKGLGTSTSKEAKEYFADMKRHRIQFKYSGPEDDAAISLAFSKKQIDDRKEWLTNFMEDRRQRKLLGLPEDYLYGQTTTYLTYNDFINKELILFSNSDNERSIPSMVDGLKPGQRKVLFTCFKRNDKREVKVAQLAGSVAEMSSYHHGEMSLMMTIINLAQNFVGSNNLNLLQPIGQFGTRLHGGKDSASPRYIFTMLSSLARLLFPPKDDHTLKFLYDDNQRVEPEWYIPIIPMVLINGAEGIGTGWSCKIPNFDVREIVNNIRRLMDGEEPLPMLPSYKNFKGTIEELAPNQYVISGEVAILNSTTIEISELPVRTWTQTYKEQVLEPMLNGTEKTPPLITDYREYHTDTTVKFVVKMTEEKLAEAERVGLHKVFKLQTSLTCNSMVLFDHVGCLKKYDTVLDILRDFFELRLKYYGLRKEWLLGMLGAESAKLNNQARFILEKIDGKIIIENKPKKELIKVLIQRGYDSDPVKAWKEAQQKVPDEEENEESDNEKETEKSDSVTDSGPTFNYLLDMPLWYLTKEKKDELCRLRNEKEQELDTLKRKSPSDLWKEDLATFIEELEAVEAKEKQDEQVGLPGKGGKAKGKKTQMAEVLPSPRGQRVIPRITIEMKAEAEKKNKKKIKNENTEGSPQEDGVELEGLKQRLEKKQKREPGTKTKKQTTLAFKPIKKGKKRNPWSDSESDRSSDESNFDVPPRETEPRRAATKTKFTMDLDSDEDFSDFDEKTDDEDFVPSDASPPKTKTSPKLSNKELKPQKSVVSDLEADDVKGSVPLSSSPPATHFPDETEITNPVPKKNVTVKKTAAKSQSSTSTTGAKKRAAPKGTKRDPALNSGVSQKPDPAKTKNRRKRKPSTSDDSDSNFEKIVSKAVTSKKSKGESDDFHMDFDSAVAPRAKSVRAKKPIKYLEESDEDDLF

Row | Compound | GI50 [1] | pIC50 [2] | pIC50 [3] | GI50 [4] | GI50 at 48 h [5] | GI50 [6] | GI50 [7] | growth inhibition (GI) [8] | growth inhibition (GI) [9] | growth inhibition (GI) [10] | growth inhibition (GI) [11] | growth inhibition (GI) [12]
1 | C/C=C(/C)C(=O)O[C@H]1[C@H](OC(C)=O)[C@]2(CO)[C@H](O)[C@H](O)[C@]3(C)C(=CC[C@@H]4[C@@]5(C)CC[C@H](O[C@@H]6O[C@H](C(=O)O)[C@@H](O)[C@H](O[C@@H]7OC[C@@H](O)[C@H](O)[C@H]7O)[C@H]6O[C@@H]6O[C@H](CO)[C@@H](O)[C@H](O)[C@H]6O)C(C)(C)[C@@H]5CC[C@]43C)[C@@H]2CC1(C)C [ERYNGIIOSIDE J] | 11.5 µM | < 3.60 | < 3.60 | 7.36 µM | 5.61 µM | 4.3 µM | 5.08 µM |  |  |  |  | 
2 | C/C=C(/C)C(=O)O[C@H]1[C@H](OC(=O)C(C)CC)[C@]2(CO)[C@H](O)[C@H](O)[C@]3(C)C(=CC[C@@H]4[C@@]5(C)CC[C@H](O)C(C)(C)[C@@H]5CC[C@]43C)[C@@H]2CC1(C)C (stereo not given in full) | 12.8 µM | < 3.60 | < 3.60 | 4.21 µM | 6.53 µM | 5.37 µM | 12.5 µM |  |  |  |  | 
3 | C/C=C(/C)C(=O)O[C@H]1[C@H](OC(C)=O)[C@]2(CO)[C@H](O)C[C@]3(C)C(=CC[C@@H]4[C@@]5(C)CC[C@H](O[C@@H]6O[C@H](C(=O)O)[C@@H](O)[C@H](O[C@@H]7O[C@@H](CO)[C@H](O)[C@H]7O)[C@H]6O[C@@H]6O[C@H](CO)[C@@H](O)[C@H](O)[C@H]6O)[C@](C)(CO)[C@@H]5CC[C@]43C)[C@@H]2CC1(C)C [AESCULIOSIDE III] | 14.8 µM | < 3.60 | < 3.60 | 8.37 µM | 12.8 µM | 20.1 µM | 9.54 µM |  |  |  |  | 
4 | C/C=C(/C)C(=O)O[C@H]1[C@H](OC(=O)C(C)C)[C@]2(CO)[C@H](O)C[C@]3(C)C(=CC[C@@H]4[C@@]5(C)CC[C@H](O)[C@](C)(CO)[C@@H]5CC[C@]43C)[C@@H]2CC1(C)C | 8 µM | < 3.60 | < 3.60 | 2.53 µM | 2.71 µM | 3.81 µM | 2.34 µM |  |  |  |  | 
5 | C/C=C(/CC)C(=O)O[C@H]1[C@H](OC(C)=O)[C@]2(CO)[C@H](O)[C@H](O)[C@]3(C)C(=CC[C@@H]4[C@@]5(C)CC[C@H](O[C@@H]6O[C@H](C(=O)O)[C@@H](O)[C@H](O[C@@H]7OC[C@H](O)[C@H](O)[C@H]7O)[C@H]6O[C@@H]6O[C@H](CO)[C@@H](O)[C@H](O)[C@H]6O)C(C)(C)[C@@H]5CC[C@]43C)[C@@H]2CC1(C)C [SANICULASAPONIN III] | 16 µM | < 3.60 | < 3.60 | 7.11 µM | 3.54 µM | 4.73 µM | 8.51 µM |  |  |  |  | 
6 | C/C=C(/C)C(=O)O[C@H]1[C@H](O)[C@]2(CO)[C@H](O)C[C@]3(C)C(=CC[C@@H]4[C@@]5(C)CC[C@H](O)[C@](C)(CO)[C@@H]5CC[C@]43C)[C@@H]2CC1(C)C | 11.9 µM | < 3.60 | < 3.60 |  | 18.1 µM | 2.45 µM | 2.23 µM | inactive |  |  |  | 
7 | C/C=C(\C)C(=O)O[C@H]1[C@H](OC(C)=O)[C@]2(CO)[C@H](O)[C@H](O)[C@]3(C)C(=CC[C@@H]4[C@@]5(C)CC[C@H](O[C@@H]6O[C@H](C(=O)O)[C@@H](O)[C@H](O[C@@H]7O[C@@H](CO)[C@H](O)[C@H]7O)[C@H]6O[C@@H]6O[C@H](CO)[C@H](O)[C@H](O)[C@H]6O)C(C)(C)[C@@H]5CC[C@]43C)[C@@H]2CC1(C)C [AESCULIOSIDE IIF] |  | < 3.60 | < 3.60 |  |  |  |  | inactive | inactive | Not Active | inactive | inactive
8 | C/C=C(/C)C(=O)O[C@H]1[C@H](OC(C)=O)[C@]2(CO)[C@H](O)[C@H](O)[C@]3(C)C(=CC[C@@H]4[C@@]5(C)CC[C@H](O[C@@H]6O[C@H](C(=O)O)[C@@H](O)[C@H](O[C@@H]7O[C@@H](CO)[C@H](O)[C@H]7O)[C@H]6O[C@@H]6O[C@H](CO)[C@H](O)[C@H](O)[C@H]6O)C(C)(C)[C@@H]5CC[C@]43C)[C@@H]2CC1(C)C [AESCULIOSIDE IIG] |  | < 3.60 | < 3.60 |  |  |  |  | inactive | inactive | Not Active | inactive | inactive
9 | C[C@H]1[C@H](C)CC[C@]2(C)CC[C@]3(C)C(=CC[C@@H]4[C@@]5(C)CC[C@H](O)C(C)(C)[C@@H]5CC[C@]43C)[C@H]12 | 12.8 µM | < 3.60 | < 3.60 |  |  | 10.5 µM | 7.66 µM | inactive |  |  |  | 
10 | C/C=C(/C)C(=O)O[C@H]1[C@H](OC(=O)/C(C)=C\C)[C@]2(CO)[C@H](O)C[C@]3(C)C(=CC[C@@H]4[C@@]5(C)CC[C@H](O)[C@](C)(CO)[C@@H]5CC[C@]43C)[C@@H]2CC1(C)C | 4.63 µM | < 3.60 | < 3.60 | 2.72 µM | 1.65 µM | 1.94 µM | 2.39 µM |  |  |  |  | 
11 | C/C=C(/C)C(=O)O[C@H]1[C@H](OC(C)=O)[C@]2(CO)[C@H](O)C[C@]3(C)C(=CC[C@@H]4[C@@]5(C)CC[C@H](O[C@@H]6O[C@H](C(=O)O)[C@@H](O)[C@H](O[C@@H]7OC[C@H](O)[C@H](O)[C@H]7O)[C@H]6O[C@@H]6O[C@H](CO)[C@@H](O)[C@H](O)[C@H]6O)C(C)(C)[C@@H]5CC[C@]43C)[C@@H]2CC1(C)C [ERYNGIIOSIDE L] | 13 µM | < 3.60 | < 3.60 | 8.41 µM | 8.71 µM | 8.35 µM | 11.3 µM |  |  |  |  | 
12 | C/C=C(\C)C(=O)O[C@H]1[C@H](OC(C)=O)[C@]2(CO)[C@H](O)C[C@]3(C)C(=CC[C@@H]4[C@@]5(C)CC[C@H](O[C@@H]6O[C@H](C(=O)O)[C@@H](O)[C@H](O[C@@H]7O[C@@H](CO)[C@H](O)[C@H]7O)[C@H]6O[C@@H]6O[C@H](CO)[C@H](O)[C@H](O)[C@H]6O)C(C)(C)[C@@H]5CC[C@]43C)[C@@H]2CC1(C)C [AESCULIOSIDE IIJ] | 21.9 µM | < 3.60 | < 3.60 |  | 17.3 µM | 21.8 µM | 13.8 µM | inactive |  |  |  | 
13 | C/C=C(/C)C(=O)O[C@H]1[C@H](OC(=O)C(C)CC)[C@]2(CO)[C@H](O)C[C@]3(C)C(=CC[C@@H]4[C@@]5(C)CC[C@H](O)C(C)(C)[C@@H]5CC[C@]43C)[C@@H]2CC1(C)C (stereo not given in full) | 9.6 µM | < 3.60 | < 3.60 | 4.6 µM | 3.67 µM | 1.7 µM | 4.11 µM |  |  |  |  | 
